Measurements published in patent US11873288B2, “Inhibitors for soluble epoxide hydrolase (sEH) and fatty acid amide hydrolase (FAAH)” (The Regents of the University of California, priority 2016, dated 2024).

How the values were obtained:
[1] = target: T1, FAAH (Felis catus, UniProt A0ABI8A862); settings: read-out: FAAH IC50, Cat; brain microsome preparations
T1 sequence (A0ABI8A862 1-541): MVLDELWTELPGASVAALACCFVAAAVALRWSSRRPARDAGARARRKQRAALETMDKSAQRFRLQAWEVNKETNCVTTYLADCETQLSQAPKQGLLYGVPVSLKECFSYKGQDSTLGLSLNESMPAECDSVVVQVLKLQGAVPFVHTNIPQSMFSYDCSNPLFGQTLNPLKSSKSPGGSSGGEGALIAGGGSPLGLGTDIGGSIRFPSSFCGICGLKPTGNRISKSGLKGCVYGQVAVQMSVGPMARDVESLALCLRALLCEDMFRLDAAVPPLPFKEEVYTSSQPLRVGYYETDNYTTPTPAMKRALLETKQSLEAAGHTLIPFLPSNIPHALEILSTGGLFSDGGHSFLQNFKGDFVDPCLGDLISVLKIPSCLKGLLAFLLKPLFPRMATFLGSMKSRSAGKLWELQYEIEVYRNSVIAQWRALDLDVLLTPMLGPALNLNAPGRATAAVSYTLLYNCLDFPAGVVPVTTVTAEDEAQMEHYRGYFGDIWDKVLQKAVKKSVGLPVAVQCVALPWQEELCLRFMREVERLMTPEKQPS

[2] = target: T2, MAGL (Homo sapiens, UniProt Q99685); test: serine hydrolase selectivity panel: MAGL
T2 sequence (Q99685 1-303): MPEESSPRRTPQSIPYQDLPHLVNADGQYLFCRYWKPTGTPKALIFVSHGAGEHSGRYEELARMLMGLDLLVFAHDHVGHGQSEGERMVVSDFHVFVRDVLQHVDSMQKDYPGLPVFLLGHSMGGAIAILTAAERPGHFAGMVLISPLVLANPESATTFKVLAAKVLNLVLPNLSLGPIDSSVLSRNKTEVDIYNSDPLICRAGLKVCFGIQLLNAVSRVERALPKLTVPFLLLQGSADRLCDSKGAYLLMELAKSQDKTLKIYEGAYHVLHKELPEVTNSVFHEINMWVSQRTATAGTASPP

[3] = target: T3, hsEH (Homo sapiens, UniProt P34913); test: human sEH inhibition (hsEH IC50); format: biochemical
T3 sequence (P34913 1-555): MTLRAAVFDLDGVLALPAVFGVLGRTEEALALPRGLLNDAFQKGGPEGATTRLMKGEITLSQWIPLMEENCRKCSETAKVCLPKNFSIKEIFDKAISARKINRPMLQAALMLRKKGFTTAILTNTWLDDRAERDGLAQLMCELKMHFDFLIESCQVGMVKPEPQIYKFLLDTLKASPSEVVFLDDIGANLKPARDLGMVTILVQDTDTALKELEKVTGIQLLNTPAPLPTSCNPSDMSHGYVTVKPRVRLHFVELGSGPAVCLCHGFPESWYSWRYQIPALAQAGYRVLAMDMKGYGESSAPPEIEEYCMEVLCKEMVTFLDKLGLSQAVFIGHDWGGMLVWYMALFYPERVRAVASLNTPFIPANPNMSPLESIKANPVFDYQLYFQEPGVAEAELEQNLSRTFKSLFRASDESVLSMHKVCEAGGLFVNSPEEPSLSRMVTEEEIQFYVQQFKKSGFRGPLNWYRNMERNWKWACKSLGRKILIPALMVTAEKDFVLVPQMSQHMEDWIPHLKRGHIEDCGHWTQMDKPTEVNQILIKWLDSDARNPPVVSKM

[4] = target: T4, hFAAH (Homo sapiens, UniProt O00519); test: recombinant FAAH enzyme with fluorescent substrate OMP (hFAAH IC50, screen); format: biochemical
T4 construct: made in house
T4 sequence (O00519 1-579): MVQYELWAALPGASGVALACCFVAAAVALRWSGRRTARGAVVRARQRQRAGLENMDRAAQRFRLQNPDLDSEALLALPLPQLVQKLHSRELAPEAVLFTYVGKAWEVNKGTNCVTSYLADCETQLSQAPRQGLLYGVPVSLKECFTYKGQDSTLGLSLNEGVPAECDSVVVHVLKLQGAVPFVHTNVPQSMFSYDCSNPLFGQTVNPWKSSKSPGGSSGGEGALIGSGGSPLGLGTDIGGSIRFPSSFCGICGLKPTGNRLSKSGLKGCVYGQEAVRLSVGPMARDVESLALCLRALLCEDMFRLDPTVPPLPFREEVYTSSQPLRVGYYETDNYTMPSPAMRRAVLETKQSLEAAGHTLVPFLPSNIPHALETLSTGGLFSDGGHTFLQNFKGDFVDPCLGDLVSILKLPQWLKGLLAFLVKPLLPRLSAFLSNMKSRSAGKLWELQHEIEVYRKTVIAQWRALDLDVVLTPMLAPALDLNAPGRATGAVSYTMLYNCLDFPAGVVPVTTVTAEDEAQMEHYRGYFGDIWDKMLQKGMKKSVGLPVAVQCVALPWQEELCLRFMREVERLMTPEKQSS

[5] = target: T4, hFAAH; test: hFAAH inhibition kinetics (KD, k2); format: biochemical
[6] = target: T5, sEH (Rattus norvegicus, UniProt P80299); test: biochemical
T5 sequence (P80299 1-554): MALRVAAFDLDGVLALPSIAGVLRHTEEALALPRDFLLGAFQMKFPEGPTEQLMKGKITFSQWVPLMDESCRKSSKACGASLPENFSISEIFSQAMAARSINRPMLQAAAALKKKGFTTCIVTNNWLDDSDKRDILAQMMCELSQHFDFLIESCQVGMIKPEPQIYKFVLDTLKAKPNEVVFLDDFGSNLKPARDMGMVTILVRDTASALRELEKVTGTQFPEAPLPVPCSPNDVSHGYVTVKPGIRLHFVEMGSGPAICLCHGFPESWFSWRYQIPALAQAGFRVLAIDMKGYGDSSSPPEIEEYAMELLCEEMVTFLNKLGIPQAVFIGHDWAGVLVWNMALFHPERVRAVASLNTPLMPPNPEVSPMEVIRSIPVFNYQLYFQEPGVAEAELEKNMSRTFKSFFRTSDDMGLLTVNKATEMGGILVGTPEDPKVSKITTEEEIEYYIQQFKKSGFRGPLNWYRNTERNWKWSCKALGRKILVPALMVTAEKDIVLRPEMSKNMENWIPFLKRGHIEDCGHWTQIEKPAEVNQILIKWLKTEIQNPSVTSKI

Compound | IC50 [1] [nM] | IC50 [2] [nM] | IC50 [3] [nM] | increase of activity/potency towards sEH [3] [fold] | IC50 [4] [nM] | Kd [5] [nM] | hFAAH k2 [5] [min⁻¹] | IC50 [6] [nM]
O=C(Nc1ccc(OC(F)(F)F)cc1)N[C@H]1CC[C@H](Oc2ccc(C(=O)OCc3ccccc3)cc2)CC1 [Compound A-14, benzyl 4-((trans-4-(3-(4-(trifluoromethoxy)phenyl)ureido)cyclohexyl)oxy) benzoate] | > 1000 | > 10000 | – | – | – | – | – | –
O=C(Nc1ccc(OC(F)(F)F)cc1)N[C@H]1CC[C@H](Oc2ccc(O)cc2)CC1 [Compound A-21, trans-1-(−4-(4-hydroxy-phenoxy)cyclohexyl)-3-(4-(trifluoromethoxy)phenyl)urea] | 130 | > 10000 | – | – | – | – | – | –
COc1ccc(NC(=O)N2CCC(Cc3cnc4ccccc4c3)CC2)cc1 [Compound B-5, N-(4-methoxyphenyl)-4-(quinolin-3-ylmethyl)piperidine-1-carboxamide] | – | – | 130 ± 40 | 4 | 32 | 24 ± 4 | 0.37 ± 0.03 | –
COc1ccc(NC(=O)N2CCC(Cc3ccc4ccccc4c3)CC2)cc1 [Compound B-8, N-(4-methoxyphenyl)-4-(naphthalen-2-ylmethyl)piperidine-1-carboxamide] | – | – | 120 ± 30 | – | 7.4 | 18 ± 4 | 0.26 ± 0.03 | –
COc1ccc(NC(=O)N2CCC(c3nc(-c4ccccc4)cs3)CC2)cc1 [Compound B-10, N-(4-methoxyphenyl)-4-(4-phenylthiazol-2-yl)piperidine-1-carboxamide] | – | – | 570 ± 170 | – | 250 | 750 ± 20 | 0.55 ± 0.02 | –
O=C(Nc1cccnc1)N1CCC(Cc2cccc(Oc3ccc(C(F)(F)F)cn3)c2)CC1 [PF-3845] | < 0.1 | – | – | – | 0.4 | – | – | –
O=C(Nc1ccc(OC(F)(F)F)cc1)N[C@H]1CC[C@H](Oc2ccc(C(=O)O)cc2)CC1 [t-TUCB, trans-4-{4-[3-(4-trifluoromethoxyphenyl)-ureido]cyclohexyloxy}benzoic acid] | > 1000 | > 10000 | – | – | – | – | – | 54
